Measured values taken from PubChem BioAssay AID1963446 (Molecular Pharmacology Branch, DTP, NCI, 2024).
Several values for one entry are separate records, joined by “and”; a condition that tells them apart may be missing. Identical values can stand only once.

System: 993429-296-R-J1-PDC complex spheroid growth, percent test/control
Assay: Anticancer human tumor 993429-296-R-J1-PDC patient-derived uterine sarcoma cell line growth inhibition [Asc]
Conditions: for viability, T/C: stronger effect = lower value
Outline: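 Concentration series start at each agent's clinical Cmax, or at 10 microM when none is established, and drop in half-log steps; agents are applied alone or together to complex spheroids built with HUVEC and hMSC.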

[1] = curve of first compound, second compound 0.03 µM
[2] = curve of first compound, second compound 0.0949 µM
[3] = curve of first compound, second compound 0.3 µM
[4] = curve of first compound, second compound 0.949 µM
[5] = curve of first compound, second compound 3 µM
[6] = second compound 0.03 µM, first compound 0.0316 µM
[7] = second compound 0.03 µM, first compound 0.1 µM
[8] = second compound 0.03 µM, first compound 0.316 µM
[9] = second compound 0.03 µM, first compound 1 µM
[10] = second compound 0.0949 µM, first compound 0.0316 µM
[11] = second compound 0.0949 µM, first compound 0.1 µM
[12] = second compound 0.0949 µM, first compound 0.316 µM
[13] = second compound 0.0949 µM, first compound 1 µM
[14] = second compound 0.3 µM, first compound 0.0316 µM
[15] = second compound 0.3 µM, first compound 0.1 µM
[16] = second compound 0.3 µM, first compound 0.316 µM
[17] = second compound 0.3 µM, first compound 1 µM
[18] = second compound 0.949 µM, first compound 0.0316 µM
[19] = second compound 0.949 µM, first compound 0.1 µM
[20] = second compound 0.949 µM, first compound 0.316 µM
[21] = second compound 0.949 µM, first compound 1 µM
[22] = second compound 3 µM, first compound 0.0316 µM
[23] = second compound 3 µM, first compound 0.1 µM
[24] = second compound 3 µM, first compound 0.316 µM
[25] = second compound 3 µM, first compound 1 µM
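Note: spheroids exposed to compounds for seven days.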

O=C(c1ccc(F)c(F)c1Nc1ccc(I)cc1F)N1CC(O)([C@@H]2CCCCN2)C1 + Cc1c(S(C)(=O)=O)c(-c2cc(F)cc(N3CCN(c4ccc(NS(=O)(=O)c5ccc(NC(CCN6CCC(C(=O)OCCCP(=O)(O)O)CC6)CSc6ccccc6)c(S(=O)(=O)C(F)(F)F)c5)cc4)CC3)c2)c(-c2ccc(Cl)cc2)n1C(C)C
IC50 (curve of first compound, second compound 0.1 µM): 7.5 nM
IC50 (curve of first compound, second compound 0.316 µM): 9.6 nM
IC50 (curve of first compound, second compound 1 µM): 4.44 nM
IC50 (curve of first compound, second compound 3.16 µM): < 3.16 nM
IC50 (curve of first compound, second compound 10 µM): 15.8 nM
viability, T/C (second compound 0.1 µM, first compound 0.00316 µM): 63%
viability, T/C (second compound 0.1 µM, first compound 0.01 µM): 42.8%
viability, T/C (second compound 0.1 µM, first compound 0.0316 µM): 31.9%
viability, T/C (second compound 0.1 µM, first compound 0.1 µM): 10.2%
viability, T/C (second compound 0.1 µM, first compound 0.316 µM): 1.93%
viability, T/C (second compound 0.1 µM, first compound 1 µM): 0.33%
viability, T/C (second compound 0.316 µM, first compound 0.00316 µM): 55.9%
viability, T/C (second compound 0.316 µM, first compound 0.01 µM): 52.7%
viability, T/C (second compound 0.316 µM, first compound 0.0316 µM): 29.1%
viability, T/C (second compound 0.316 µM, first compound 0.1 µM): 15.3%
viability, T/C (second compound 0.316 µM, first compound 0.316 µM): 1.67%
viability, T/C (second compound 0.316 µM, first compound 1 µM): 0.23%
viability, T/C (second compound 1 µM, first compound 0.00316 µM): 57.6%
viability, T/C (second compound 1 µM, first compound 0.01 µM): 30.8%
viability, T/C (second compound 1 µM, first compound 0.0316 µM): 19.3%
viability, T/C (second compound 1 µM, first compound 0.1 µM): 5.07%
viability, T/C (second compound 1 µM, first compound 0.316 µM): 0.22%
viability, T/C (second compound 1 µM, first compound 1 µM): 0.14%
viability, T/C (second compound 3.16 µM, first compound 0.00316 µM): 39.2%
viability, T/C (second compound 3.16 µM, first compound 0.01 µM): 30.8%
viability, T/C (second compound 3.16 µM, first compound 0.0316 µM): 21.1%
viability, T/C (second compound 3.16 µM, first compound 0.1 µM): 2.83%
viability, T/C (second compound 3.16 µM, first compound 0.316 µM): 0.52%
viability, T/C (second compound 3.16 µM, first compound 1 µM): 0.18%
viability, T/C (second compound 10 µM, first compound 0.00316 µM): 72%
viability, T/C (second compound 10 µM, first compound 0.01 µM): 68.7%
viability, T/C (second compound 10 µM, first compound 0.0316 µM): 21.6%
viability, T/C (second compound 10 µM, first compound 0.1 µM): 3.49%
viability, T/C (second compound 10 µM, first compound 0.316 µM): 0.84%
viability, T/C (second compound 10 µM, first compound 1 µM): 0.16%

O=C(c1cc(Cc2n[nH]c(=O)c3ccccc23)ccc1F)N1CCN(C(=O)C2CC2)CC1 + CCN1C(C(=O)NC23CCC(C(=O)O)(CC2)CC3)C(c2cccc(Cl)c2F)C2(C(=O)Nc3cc(Cl)ccc32)C12CCCCC2
IC50 [1]: 6360 nM
IC50 [2]: 4840 nM
IC50 [3]: 6870 nM
IC50 [4]: 4900 nM
IC50 [5]: 3040 nM
viability, T/C [6]: 87.8%
viability, T/C [7]: 104%
viability, T/C [8]: 98%
viability, T/C [9]: 100%
viability, T/C (second compound 0.03 µM, first compound 3.16 µM): 66.3%
viability, T/C (second compound 0.03 µM, first compound 10 µM): 39.5%
viability, T/C [10]: 109%
viability, T/C [11]: 106%
viability, T/C [12]: 87.9%
viability, T/C [13]: 113%
viability, T/C (second compound 0.0949 µM, first compound 3.16 µM): 61.9%
viability, T/C (second compound 0.0949 µM, first compound 10 µM): 29.6%
viability, T/C [14]: 92%
viability, T/C [15]: 100%
viability, T/C [16]: 99.7%
viability, T/C [17]: 78.6%
viability, T/C (second compound 0.3 µM, first compound 3.16 µM): 76.1%
viability, T/C (second compound 0.3 µM, first compound 10 µM): 38.5%
viability, T/C [18]: 100%
viability, T/C [19]: 113%
viability, T/C [20]: 88.8%
viability, T/C [21]: 81%
viability, T/C (second compound 0.949 µM, first compound 3.16 µM): 62.2%
viability, T/C (second compound 0.949 µM, first compound 10 µM): 32.1%
viability, T/C [22]: 96.6%
viability, T/C [23]: 90.3%
viability, T/C [24]: 78.4%
viability, T/C [25]: 83.1%
viability, T/C (second compound 3 µM, first compound 3.16 µM): 48.3%
viability, T/C (second compound 3 µM, first compound 10 µM): 33.1%

O=C(c1ccc(F)c(F)c1Nc1ccc(I)cc1F)N1CC(O)([C@@H]2CCCCN2)C1 + CCN1C(C(=O)NC23CCC(C(=O)O)(CC2)CC3)C(c2cccc(Cl)c2F)C2(C(=O)Nc3cc(Cl)ccc32)C12CCCCC2
IC50 [1]: 42.6 nM
IC50 [2]: 64.6 nM
IC50 [3]: 42.4 nM
IC50 [4]: 50.1 nM
IC50 [5]: 19.3 nM
viability, T/C (second compound 0.03 µM, first compound 0.00316 µM): 98%
viability, T/C (second compound 0.03 µM, first compound 0.01 µM): 72.2%
viability, T/C [6]: 58%
viability, T/C [7]: 38.7%
viability, T/C [8]: 8.47%
viability, T/C [9]: 1.77%
viability, T/C (second compound 0.0949 µM, first compound 0.00316 µM): 80.2%
viability, T/C (second compound 0.0949 µM, first compound 0.01 µM): 87.7%
viability, T/C [10]: 66%
viability, T/C [11]: 39.8%
viability, T/C [12]: 8.87%
viability, T/C [13]: 1.19%
viability, T/C (second compound 0.3 µM, first compound 0.00316 µM): 85.8%
viability, T/C (second compound 0.3 µM, first compound 0.01 µM): 74.7%
viability, T/C [14]: 61.1%
viability, T/C [15]: 22.3%
viability, T/C [16]: 8.15%
viability, T/C [17]: 2.9%
viability, T/C (second compound 0.949 µM, first compound 0.00316 µM): 86.8%
viability, T/C (second compound 0.949 µM, first compound 0.01 µM): 67.3%
viability, T/C [18]: 66.3%
viability, T/C [19]: 30.9%
viability, T/C [20]: 8.19%
viability, T/C [21]: 2.6%
viability, T/C (second compound 3 µM, first compound 0.00316 µM): 74.9%
viability, T/C (second compound 3 µM, first compound 0.01 µM): 64.4%
viability, T/C [22]: 38.3%
viability, T/C [23]: 20.6%
viability, T/C [24]: 5.52%
viability, T/C [25]: 0.67%

Cc1nc(N2CCC3(CC2)COC(C)C3N)c(CO)nc1Sc1ccnc(N)c1Cl (configuration not stated)
viability, T/C (compound 0.00949 µM): 94.6% and 84.2% and 83.6%
viability, T/C (compound 0.03 µM): 93.1% and 77% and 87.6%
viability, T/C (compound 0.0949 µM): 75.2% and 65.9% and 54.9%
viability, T/C (compound 0.3 µM): 58.9% and 43% and 42.1%
viability, T/C (compound 0.949 µM): 49% and 32.2% and 34.5%
viability, T/C (compound 3 µM): 40.3% and 25.8% and 27.8%
IC50 (curve of compound): 712 nM and 216 nM and 144 nM
